Residues, ends and D or L forms follow the SMILES beside them. No end group written: not given here. *: point of attachment. Carboxymethyl = O=C(O)C*
What was measured:
CD4+ T cells from PBMC = test: IFN-γ ELISpot, PBMC-derived in vitro expanded CD4+ T cell lines; type: cell-based, human; design: key to T cell recognition by PBMC from a T1D donor (mark E) / T cell recognition by PBMC from a T1D donor: E: T cell recognition by PBMC from a T1D donor was tested and verified; see Figure 5; details: for T1D Donor T cell response / non-T1D Donor T cell response: PBMC T cell lines, responding donors/donors tested; for Recognition by IFN-γ-secreting CD4 T cells (ELISpot): expanded PBMCs from a T1D donor, PTM peptides and native parents; for T cell recognition by PBMC from a T1D donor / T cell recognition by PBMC from a T1D donor (mark E): MHC-II peptides; for T cell recognition by PBMC from a T1D donor: superscript E on the peptide, G = verified with QBL cells; for T cell recognition by PBMC from a T1D donor (mark E): tested and verified, see Figure 5
HLA-DRB1*03:01 = HLA-DRB1*03:01 (Homo sapiens, UniProt P01903+P01911, A100K/A102G/A103R/A169T/F55Y/I96L/K41T/L162R/M171V/P40S/Q125H/Q178H/Q39Y/R42S/S66N/T106N/T262R/W38E/Y61H); test: Fluorescence polarization competition peptide binding assay, HLA-DRB1*03:01
CD8+ T cells from PBMC = test: IFN-γ ELISpot, PBMC-derived in vitro expanded CD8+ T cell lines; type: cell-based, human; details: PBMC T cell lines, responding donors/donors tested
[1] = test system: islet-derived T cell lines; test: Cytokine bead array (IFN-γ, TNF-α, IL-10), combined islet-derived T cell lines from donors with T1D; details: for islet derived T cell lines response to A2-S peptide pools or to single peptides: class I (A2) peptide pools or single peptides; for islet derived T cell lines response to A2-S peptide pools or to single peptides / islet derived T cell lines response to DR peptide pools or to single peptides: IFNg, TNFa, IL-10 secretion; for islet derived T cell lines response to DR peptide pools or to single peptides: class II (DR) peptide pools or single peptides
[2] = PTM and unmodified native Pool Peptides (pool PTM 1), long peptides
[3] = SEC (Secretory) A2 Peptides Set
[4] = DRB1*03:01+ donor 6579, cytokine bead array (Figures 6I–6K)
[5] = PTM and unmodified native Pool Peptides (pool PTM 1), 9-mer peptides
[6] = SEC (Secretory) DR3 Peptides Set

Compound: CC(C)C[C@H](NC(=O)[C@H](C)NC(=O)[C@H](CCC(=O)O)NC(=O)[C@@H](NC(=O)[C@H](CC(C)C)NC(=O)[C@H](Cc1c[nH]cn1)NC(=O)[C@H](CO)NC(=O)CN)C(C)C)C(=O)N[C@@H](Cc1ccc(O)cc1)C(=O)N[C@@H](CC(C)C)C(=O)N[C@H](C(=O)N[C@@H](CSCC(=O)O)C(=O)NCC(=O)N[C@@H](CCC(=O)O)C(=O)N[C@@H](CCCNC(=N)N)C(=O)NCC(=O)N[C@@H](Cc1ccccc1)C(=O)O)C(C)C [peptide 146–1, GSHLVEALYLVXGERGF] (H-GSHLVEALYLVC(Carboxymethyl)GERGF-OH; N-terminus and C-terminus assumed)
- T1D Donor T cell response (CD4+ T cells from PBMC; [2]): 1/4
- non-T1D Donor T cell response (CD4+ T cells from PBMC; [2]): 0/4
- Recognition by IFN-γ-secreting CD4 T cells (ELISpot) (CD4+ T cells from PBMC): recognized
- IC50 (HLA-DRB1*03:01): 0.27 to 0.3 µM

Compound: AAAFVNQHL [compound 171]
- T1D Donor T cell response (CD8+ T cells from PBMC; [3]): 0/6
- non-T1D Donor T cell response (CD8+ T cells from PBMC; [3]): 0/4
- islet derived T cell lines response to A2-S peptide pools or to single peptides ([1]; donor 6551 lines): donors 6551 and 6578 lines negative
- islet derived T cell lines response to A2-S peptide pools or to single peptides ([1]; donor 6578 lines): donors 6551 and 6578 lines negative

Compound: AVPEEEGPTVVLXPHPSLG [148–1]
- T1D Donor T cell response (CD4+ T cells from PBMC; [2]): 0/4
- non-T1D Donor T cell response (CD4+ T cells from PBMC; [2]): 0/4
- IFN-γ secretion, islet-derived T cell lines [1, 4]: recognized
- IL-10 secretion, islet-derived T cell lines [1, 4]: recognized
- TNF-α secretion, islet-derived T cell lines [1, 4]: recognized
- islet derived T cell lines response to DR peptide pools or to single peptides ([1]; donor 6550 lines): donor 6550 lines negative
- islet derived T cell lines response to DR peptide pools or to single peptides ([1]; donor 6579 lines, listed as 148-1): donor 6579 lines positive with TNFa and IL-10 secretion

Compound: AVPEEEGPTVVLXPHPSLG [148–2]
- islet derived T cell lines response to DR peptide pools or to single peptides ([1]; donor 6579 lines, listed as 148-2): donor 6579 lines positive with IFNg, TNFa and IL-10 secretion

Compound: EADFAIEAL [150-1]
- T1D Donor T cell response (CD8+ T cells from PBMC; [5]): 0/6
- non-T1D Donor T cell response (CD8+ T cells from PBMC; [5]): 0/4
- islet derived T cell lines response to A2-S peptide pools or to single peptides ([1]; donor 6551 lines): donor 6551 lines positive with IFNg, TNFa, IL10 secretion

Compound: GSHLVEALYLVCGERGF [peptide 146]
- T1D Donor T cell response (CD4+ T cells from PBMC; [2]): 1/4
- non-T1D Donor T cell response (CD4+ T cells from PBMC; [2]): 0/4
- Recognition by IFN-γ-secreting CD4 T cells (ELISpot) (CD4+ T cells from PBMC): recognized
- IC50 (HLA-DRB1*03:01): 0.27 to 0.3 µM

Compound: KSIYFVAGL [compound 173]
- T1D Donor T cell response (CD8+ T cells from PBMC; [3]): 0/6
- non-T1D Donor T cell response (CD8+ T cells from PBMC; [3]): 0/4
- islet derived T cell lines response to A2-S peptide pools or to single peptides ([1]; donor 6551 lines): donors 6551 and 6578 lines negative
- islet derived T cell lines response to A2-S peptide pools or to single peptides ([1]; donor 6578 lines): donors 6551 and 6578 lines negative

Compound: LNKSINPDEAVAYGAA
- T cell recognition by PBMC from a T1D donor (CD4+ T cells from PBMC): LNKS INPDEAVAY GAA ^ E

Compound: LNKSINPDEAVAYGAA [peptide 15]
- T1D Donor T cell response (CD4+ T cells from PBMC; DR3/DQ Set Peptides): 1/4
- non-T1D Donor T cell response (CD4+ T cells from PBMC; DR3/DQ Set Peptides): 0/2

Compound: NPAEFVVNTSNAGAG
- T cell recognition by PBMC from a T1D donor (mark E) (CD4+ T cells from PBMC): NPAE FVVNTSNAG AG ^ E

Compound: NPAEFVVNTSNAGAG [compound 22]
- T1D Donor T cell response (CD4+ T cells from PBMC; DR3/DQ Set Peptides): 0/4
- non-T1D Donor T cell response (CD4+ T cells from PBMC; DR3/DQ Set Peptides): 0/2

Compound: NPANPAILSEASAPIPHDG [compound 27]
- T1D Donor T cell response (CD4+ T cells from PBMC; DR3/DQ Set Peptides): 0/4
- non-T1D Donor T cell response (CD4+ T cells from PBMC; DR3/DQ Set Peptides): 0/2

Compound: NYPSLELDKMAHG
- T cell recognition by PBMC from a T1D donor (mark E) (CD4+ T cells from PBMC): NYPSLELDKMAHG ^ E

Compound: NYPSLELDKMAHG [peptide 182]
- T1D Donor T cell response (CD4+ T cells from PBMC; [6]): 0/4
- non-T1D Donor T cell response (CD4+ T cells from PBMC; [6]): 0/4
- IL-10 secretion, islet-derived T cell lines [1, 4]: recognized
- islet derived T cell lines response to DR peptide pools or to single peptides ([1]; donor 6579 lines): donor 6579 lines positive with IL-10 secretion

Compound: QDPELPDKNMFTINRNTGVIS
- T cell recognition by PBMC from a T1D donor (mark E) (CD4+ T cells from PBMC): QDPELPDKNM FTINRNTGV IS ^ E

Compound: QDPELPDKNMFTINRNTGVIS [compound 29]
- T1D Donor T cell response (CD4+ T cells from PBMC; DR3/DQ Set Peptides): 2/4
- non-T1D Donor T cell response (CD4+ T cells from PBMC; DR3/DQ Set Peptides): 0/2

Compound: QSIEGGAHEGLQHLGP
- T cell recognition by PBMC from a T1D donor (CD4+ T cells from PBMC): QS IEGGAHEGL QHLGP ^ E

Compound: QSIEGGAHEGLQHLGP [peptide 191]
- T1D Donor T cell response (CD4+ T cells from PBMC; [6]): 0/4
- non-T1D Donor T cell response (CD4+ T cells from PBMC; [6]): 0/4
- IL-10 secretion, islet-derived T cell lines ([1]; DRB1*03:01+ donor 6550, cytokine bead array (Figure 6H)): recognized
- islet derived T cell lines response to DR peptide pools or to single peptides ([1]; donor 6550 lines): donor 6550 lines positive with IL-10 secretion
- islet derived T cell lines response to DR peptide pools or to single peptides ([1]; donor 6579 lines): donor 6579 lines negative
